According to US12312350B2, “Compounds for inhibiting NLRP3 and uses thereof” (Ventus Therapeutics U.S., Inc., priority 2021, dated 2025):

Target: NLRP3 (Homo sapiens, UniProt Q96P20)
Assay: Human whole blood (hWB) NLRP3 Assay
Description: Heparin lithium coated tubes were used to collect blood from volunteers. Blood samples were distributed on 96 well plates using 90 μl per well. […] Human whole blood was drawn from healthy volunteers after obtaining written informed consent.

NLRP3, sequence (Q96P20 whole entry): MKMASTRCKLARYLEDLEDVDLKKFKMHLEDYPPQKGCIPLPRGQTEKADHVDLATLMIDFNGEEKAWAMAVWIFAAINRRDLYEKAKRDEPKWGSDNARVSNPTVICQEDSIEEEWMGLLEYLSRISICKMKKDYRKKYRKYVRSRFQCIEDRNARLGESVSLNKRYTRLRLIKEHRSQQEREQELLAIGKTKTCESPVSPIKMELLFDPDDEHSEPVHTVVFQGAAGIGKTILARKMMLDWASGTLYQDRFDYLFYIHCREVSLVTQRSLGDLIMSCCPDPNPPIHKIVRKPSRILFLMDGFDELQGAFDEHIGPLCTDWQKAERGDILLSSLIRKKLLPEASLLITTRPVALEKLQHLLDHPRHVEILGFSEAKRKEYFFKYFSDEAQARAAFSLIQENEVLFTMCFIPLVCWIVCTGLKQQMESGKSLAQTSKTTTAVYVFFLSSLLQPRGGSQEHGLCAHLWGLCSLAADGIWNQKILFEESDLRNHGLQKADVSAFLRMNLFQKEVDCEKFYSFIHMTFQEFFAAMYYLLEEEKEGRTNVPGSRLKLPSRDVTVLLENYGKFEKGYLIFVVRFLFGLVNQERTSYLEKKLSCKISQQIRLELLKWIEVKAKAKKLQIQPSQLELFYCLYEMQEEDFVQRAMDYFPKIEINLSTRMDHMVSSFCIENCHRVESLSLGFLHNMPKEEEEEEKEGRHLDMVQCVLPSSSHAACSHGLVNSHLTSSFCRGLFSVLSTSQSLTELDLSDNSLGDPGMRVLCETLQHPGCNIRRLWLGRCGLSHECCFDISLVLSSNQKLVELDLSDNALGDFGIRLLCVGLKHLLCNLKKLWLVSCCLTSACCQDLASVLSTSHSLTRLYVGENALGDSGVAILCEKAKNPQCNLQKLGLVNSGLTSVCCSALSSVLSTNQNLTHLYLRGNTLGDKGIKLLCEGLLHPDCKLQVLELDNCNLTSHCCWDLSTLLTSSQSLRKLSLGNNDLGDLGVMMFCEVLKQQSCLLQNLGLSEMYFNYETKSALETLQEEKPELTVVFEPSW

**Q.** For Clc1ccc(-c2nnc(NCC3CCCO3)c3ccncc23)cc1 (stereo not shown), which IC50 is on record?
**A.** 42 µM
